Experiments:
[1] = tested on: HUES8-derived treated cells grafted under the kidney capsule; assay: Kidney capsule implantation of treated cells in CD1-nude mice; type: in vivo, mouse
Procedure: After 4 days treatment with 300 nM ILV or 300 nM ILV+ 50 ng/ml FGF10, the cells were washed with DPBS for 3 times and treated with 1 mg/ml dispase for 5 min at 37° C. Then, the cells were lifted with the help of cell scraper, collected by centrifugation and resuspended in 50 μl DMEM supplemented 1×B27. About 40 μl (˜2×10^6 cells) of cell clumps were implanted into the left kidney of xylazine anesthetized CD1-nude mice. Two mice were prepared for each sample. Twelve weeks later, the left kidneys were dissected and fixed in 4% paraformaldehyde for 4 hours at 4° C. and processed by standard techniques to generate 15 micrometer cryosections for antibody staining. The antibodies were used as the same condition as immunocytochemistry. Fluorescent images were acquired on an inverted Zeiss LSM 510 confocal microscope.
To further assess the developmental competence of chemically-treated cells, the cells were transplanted under the kidney capsule of nude mice, an assay used by others to observe pancreatic differentiation in vivo (Korsgren et al., 1991; Movassat et al., 2002). […] Additionally, all insulin^+ cells express c-peptide. In contrast, no insulin^+ cells were detected in the mice injected with DMSO-treated population. […]

[2] = tested on: HUES8-derived population; assay: Ki67 staining for proliferation of Pdx1+ cells; type: cell-based, human; conditions: 300 nM ILV, 4 days
Procedure: (§1) Cells were fixed with 10% formalin solution (Sigma) for 20 min at room temperature. Immunostaining was carried out with standard protocols. The following primary antibodies were used: goat anti-Pdx1 (1:500; R&D system); rabbit anti-FOXA2 (1:500; Upstate); rabbit anti-HNF6 (1:200; Santa Cruz Biotech); guinea pig anti-insulin (1:1000; Dako); rabbit anti-c-peptide (1:500; Linco); rabbit anti-amylase (1:200, Sigma); goat anti-HNF1β (1:100, Santa Cruz Biotech); and biotinylated DBA (1:400; Vector Lab). Alexa-488-, Alexa-555, and Alexa-647-conjugated donkey antibodies against mouse, rabbit, guinea pig and goat, and Pacific Blue conjugate-streptavidin (Invitrogen) were used at 1:300 dilution.
The results provided above are consistent with (1) ILV promotion of the proliferation or replication of the few pancreatic progenitors present in the starting population and with (2) differentiation induction of definitive endoderm by the compound. To distinguish between these possibilities, a HUES8-derived population was treated with 300 nM ILV for 4 days and analyzed for proliferation by staining with the antibody against Ki67 (marker for proliferating cells).

[3] = tested on: mouse ESC-derived definitive endoderm with Pdx1-GFP reporter; assay: Pancreatic differentiation of mESC-derived definitive endoderm (Pdx1-GFP reporter); type: cell-based; conditions: 300 nM ILV
Procedure: Mouse embryonic stem cells (mESCs) with Pdx1-GFP reporter are routinely cultured on irradiated CF-1 MEF feeder cells in KnockOut DMEM (Invitrogen) supplemented with 15% FBS (Hyclone), 2 mM L-Glu, 1.1 mM 2-mercaptoethanol, 1 mM nonessential amino acids, 1×PS and 10^3 unit LIF (Chemicon). Cells are passaged at the ratio of 1:12 every 3 days by using 0.25% trypsin-EDTA (Invitrogen).
To generate a definitive endoderm population, mESCs were plated on gelatin-coated surface at 2500 cell/cm^2 after depletion of MEF feeder cells. Then, the cells were treated with 1000 ng/ml recombinant mouse Nodal (R&D systems) in A-RPMI supplemented with 1×L-Glu, 1×L-PS and 0.2% FBS for 5 days. […]
Total RNAs were extracted with the RNeasy Mini Kit (Qiagen) and reverse-transcribed using SuperScript III RT-PCR system (Invitrogen) according to the manufacturer's protocol. One microliter of cDNA sample was PCR amplified with QuantiFast SYBR Green PCR Kit (Qiagen) and analyzed with DNA engine Opticon2 (MJ Research).
To determine whether ILV functions on other species, the effect of ILV on a population of mouse ESCs (mESCs) that have been induced to form definitive endoderm was examined. […] The increase of Pdx1 expression can be further confirmed with immunostaining (FIG. 3b) and quantitative RT-PCR (qRT-PCR, FIG. 3c). […]

[4] = tested on: HUES8-derived population (Pdx1+ cells); assay: Pdx1 antibody staining of treated HUES8-derived population; type: cell-based, human; conditions: HUES8-derived population, 4 days; 300 nM ILV and/or 50 ng/ml FGF10
Procedure: To generate a starting population, HUES cells were cultured on MEF feeder cells until 80-90% confluent, then treated with 25 ng/ml Wnt3a (R&D systems)+100 ng/ml Activin A (R&D systems) in advanced RPMI (A-RPMI, Invitrogen) supplemented with 1×L-Glu and 1×PS for 1 day, and then 100 ng/ml Activin A in A-RPMI supplemented with 1×L-Glu, 1×PS and 0.2% FBS (Invitrogen). Two days later, the media was changed to 50 ng/ml FGF10 (R&D systems)+0.25 μM KAAD-CYC (Calbiochem) in A-RPMI supplemented with 1×L-Glu, 1×PS and 2% FBS and maintained for additional 2 days. Cells were then transferred to 50 ng/ml FGF10+0.25 μM KAAD-CYC+2 μM RA (Sigma) in DMEM supplemented with 1×L-Glu, 1×PS, 1×B27 (Invitrogen) and cultured for an additional 4 days. ILV was obtained from Axxora, KAAD-CYC, TPB, PMA, BISI, Gö 6983, U0126 and PD98059 were obtained from Calbiochem and RA were obtained from Sigma.
as §1
To determine whether PKC signaling is being activated in HUES-derived cells, HUES8-derived definitive endoderm population was treated with two PKC agonists, TPB ((2S,5S)-(E,E)-8-(5-(4-(trifluoromethyl)phenyl)-2,4-pentadienoylamino)benzolactam) and PMA (phorbol-12-myristate-13-acetate), in the absence of ILV. […] Furthermore, HUES8-derived population was treated with two PKC antagonists, BISI (Bisindolylmaleimide I) and Gö 6983, in the presence of ILV.
Experiments were performed to monitor downstream signaling by PKC. Since ERK signaling has been reported to be regulated by PKC (Ueda et al., 1996), the activity of ERK signaling was examined with Western blotting to detect the phosphorylation of ERK1/2 at Thr-202/Tyr-204.

For (−)-Indolactam V [ILV], the teratoma ([1]; after twelve weeks) was “no evidence for teratoma was detected”, the “endocrine and exocrine markers in grafts” value ([1]; cells treated 4 days, implanted in left kidney of CD1-nude mice, twelve weeks) was “contained cell clusters that expressed endocrine markers, including insulin and c-peptide, and an exocrine marker, amylase” and the “Pdx1+ cells expressing Ki67” value [2] was “no Pdx1^+ cells expressing Ki67”. The “percentage of GFP+ cells” value ([3]; 6 days) was 50.0±6.1%, the “expression of mRNAs of pancreatic markers (Pdx1, Cdcp1, Ptfla, HNF6, FOXA2, Nkx2.2)” value ([3]; qRT-PCR) was “increase” and the “percentage of cells stained by Pdx1 antibody” value [4] was 26.9±2.8%.
